Converted amounts (≈) assume the structure as drawn.
Legend:
[1] = tested on: Mycobacterium tuberculosis; experiment: Antimycobacterial activity against Mycobacterium tuberculosis H37Rv ATCC 27294 by MABA method; assay type: functional
Escherichia coli [2] = experiment: Antibacterial activity against Escherichia coli ATCC 25922 after 18 to 24 hrs by standard twofold serial dilution method; assay type: functional
Escherichia coli [3] = experiment: Antibacterial activity against Escherichia coli 12-1 after 18 to 24 hrs by standard twofold serial dilution method; assay type: functional
Escherichia coli [4] = experiment: Antibacterial activity against extended-spectrum beta-lactamase producing Escherichia coli 12-2 after 18 to 24 hrs by standard twofold serial dilution method; assay type: functional
Escherichia coli [5] = experiment: Antibacterial activity against extended-spectrum beta-lactamase producing Escherichia coli 12-3 after 18 to 24 hrs by standard twofold serial dilution method; assay type: functional
Escherichia coli [6] = experiment: Antibacterial activity against extended-spectrum beta-lactamase producing Escherichia coli 12-14 after 18 to 24 hrs by standard twofold serial dilution method; assay type: functional
Escherichia coli [7] = experiment: Antibacterial activity against extended-spectrum beta-lactamase producing Escherichia coli 12-15 after 18 to 24 hrs by standard twofold serial dilution method; assay type: functional
Klebsiella pneumoniae [8] = experiment: Antibacterial activity against Klebsiella pneumoniae 12-1 after 18 to 24 hrs by standard twofold serial dilution method; assay type: functional
Klebsiella pneumoniae [9] = experiment: Antibacterial activity against Klebsiella pneumoniae 12-2 after 18 to 24 hrs by standard twofold serial dilution method; assay type: functional
Klebsiella pneumoniae [10] = experiment: Antibacterial activity against Klebsiella pneumoniae 12-4 after 18 to 24 hrs by standard twofold serial dilution method; assay type: functional
Klebsiella pneumoniae [11] = experiment: Antibacterial activity against extended-spectrum beta-lactamase producin Klebsiella pneumoniae 12-3 after 18 to 24 hrs by standard twofold serial dilution method; assay type: functional
Klebsiella pneumoniae [12] = experiment: Antibacterial activity against extended-spectrum beta-lactamase producin Klebsiella pneumoniae 12-4 after 18 to 24 hrs by standard twofold serial dilution method; assay type: functional
Klebsiella pneumoniae [13] = experiment: Antibacterial activity against extended-spectrum beta-lactamase producin Klebsiella pneumoniae 12-7 after 18 to 24 hrs by standard twofold serial dilution method; assay type: functional
Klebsiella pneumoniae [14] = experiment: Antibacterial activity against extended-spectrum beta-lactamase producin Klebsiella pneumoniae 12-14 after 18 to 24 hrs by standard twofold serial dilution method; assay type: functional
Pseudomonas aeruginosa [15] = experiment: Antibacterial activity against Pseudomonas aeruginosa 12-12 after 18 to 24 hrs by standard twofold serial dilution method; assay type: functional
Pseudomonas aeruginosa [16] = experiment: Antibacterial activity against Pseudomonas aeruginosa 12-14 after 18 to 24 hrs by standard twofold serial dilution method; assay type: functional
Staphylococcus aureus [17] = experiment: Antibacterial activity against Staphylococcus aureus ATCC 25923 after 18 to 24 hrs by standard twofold serial dilution method; assay type: functional
Staphylococcus aureus [18] = experiment: Antibacterial activity against methicillin-sensitive Staphylococcus aureus 12-1 after 18 to 24 hrs by standard twofold serial dilution method; assay type: functional
Staphylococcus aureus [19] = experiment: Antibacterial activity against methicillin-sensitive Staphylococcus aureus 12-2 after 18 to 24 hrs by standard twofold serial dilution method; assay type: functional
Staphylococcus aureus [20] = experiment: Antibacterial activity against methicillin-sensitive Staphylococcus aureus 12-4 after 18 to 24 hrs by standard twofold serial dilution method; assay type: functional
Staphylococcus aureus [21] = experiment: Antibacterial activity against methicillin-sensitive Staphylococcus aureus 12-5 after 18 to 24 hrs by standard twofold serial dilution method; assay type: functional
Staphylococcus aureus [22] = experiment: Antibacterial activity against methicillin-resistant Staphylococcus aureus 12-2 after 18 to 24 hrs by standard twofold serial dilution method; assay type: functional
Staphylococcus aureus [23] = experiment: Antibacterial activity against methicillin-resistant Staphylococcus aureus 12-4 after 18 to 24 hrs by standard twofold serial dilution method; assay type: functional
Staphylococcus aureus [24] = experiment: Antibacterial activity against methicillin-resistant Staphylococcus aureus 12-5 after 18 to 24 hrs by standard twofold serial dilution method; assay type: functional
[25] = tested on: Staphylococcus epidermidis; experiment: Antibacterial activity against methicillin-sensitive Staphylococcus epidermidis 12-1 after 18 to 24 hrs by standard twofold serial dilution method; assay type: functional
[26] = tested on: Staphylococcus epidermidis; experiment: Antibacterial activity against methicillin-sensitive Staphylococcus epidermidis 12-3 after 18 to 24 hrs by standard twofold serial dilution method; assay type: functional
[27] = tested on: Staphylococcus epidermidis; experiment: Antibacterial activity against methicillin-sensitive Staphylococcus epidermidis 12-6 after 18 to 24 hrs by standard twofold serial dilution method; assay type: functional
[28] = tested on: Staphylococcus epidermidis; experiment: Antibacterial activity against methicillin-sensitive Staphylococcus epidermidis 12-8 after 18 to 24 hrs by standard twofold serial dilution method; assay type: functional
[29] = tested on: Staphylococcus epidermidis; experiment: Antibacterial activity against methicillin-resistant Staphylococcus epidermidis 12-1 after 18 to 24 hrs by standard twofold serial dilution method; assay type: functional
[30] = tested on: Staphylococcus epidermidis; experiment: Antibacterial activity against methicillin-resistant Staphylococcus epidermidis 12-6 after 18 to 24 hrs by standard twofold serial dilution method; assay type: functional
Streptococcus pneumoniae [31] = experiment: Antibacterial activity against Streptococcus pneumoniae ATCC 49619 after 18 to 24 hrs by standard twofold serial dilution method; assay type: functional
Streptococcus pneumoniae [32] = experiment: Antibacterial activity against Streptococcus pneumoniae 12-18 after 18 to 24 hrs by standard twofold serial dilution method; assay type: functional
Escherichia coli [33] = experiment: Antibacterial activity against Escherichia coli 12-1 infected in mouse dosed orally twice at 0 and 6 hrs after infection; assay type: functional; conditions: 12-1, po
[34] = tested on: Staphylococcus epidermidis; experiment: Antibacterial activity against methicillin-resistant Staphylococcus epidermidis 12-1 infected in mouse dosed orally twice at 0 and 6 hrs after infection; assay type: functional; conditions: 12-1, po
Staphylococcus aureus [35] = experiment: Antibacterial activity against methicillin-resistant Staphylococcus aureus 12-5 infected in mouse dosed orally twice at 0 and 6 hrs after infection; assay type: functional; conditions: 12-5, po
Streptococcus pneumoniae [36] = experiment: Antibacterial activity against Streptococcus pneumoniae 12-10 infected in mouse dosed orally twice at 0 and 6 hrs after infection; assay type: functional; conditions: 12-10, po
Klebsiella pneumoniae [37] = experiment: Antibacterial activity against Klebsiella pneumoniae 12-1 infected in mouse dosed orally twice at 0 and 6 hrs after infection; assay type: functional; conditions: 12-1, po
Staphylococcus aureus [38] = experiment: Antibacterial activity against methicillin-sensitive Staphylococcus aureus 12-1 infected in mouse dosed orally twice at 0 and 6 hrs after infection; assay type: functional; conditions: 12-1, po
[39] = Solubility of the compound; assay type: physicochemical

SMILES	MIC [1] [µg/mL]	MIC (Escherichia coli [2]) [µg/mL]	MIC (Escherichia coli [3]) [µg/mL]	MIC (Escherichia coli [4]) [µg/mL]	MIC (Escherichia coli [5]) [µg/mL]	MIC (Escherichia coli [6]) [µg/mL]	MIC (Escherichia coli [7]) [µg/mL]	MIC (Klebsiella pneumoniae [8]) [µg/mL]	MIC (Klebsiella pneumoniae [9]) [µg/mL]	MIC (Klebsiella pneumoniae [10]) [µg/mL]	MIC (Klebsiella pneumoniae [11]) [µg/mL]	MIC (Klebsiella pneumoniae [12]) [µg/mL]	MIC (Klebsiella pneumoniae [13]) [µg/mL]	MIC (Klebsiella pneumoniae [14]) [µg/mL]	MIC (Pseudomonas aeruginosa [15]) [µg/mL]	MIC (Pseudomonas aeruginosa [16]) [µg/mL]	MIC (Staphylococcus aureus [17]) [µg/mL]	MIC (Staphylococcus aureus [18]) [µg/mL]	MIC (Staphylococcus aureus [19]) [µg/mL]	MIC (Staphylococcus aureus [20]) [µg/mL]	further results
CO/N=C1/CCN(c2c(F)cc3c(=O)c(C(=O)O)cn([C@@H]4C[C@@H]4F)c3c2OC)CC1N (some centres undefined)	0.25 (≈ 0.573 µM)	0.06 (≈ 0.137 µM)	0.5 (≈ 1.15 µM)	32 (≈ 73.3 µM)	32 (≈ 73.3 µM)	16 (≈ 36.7 µM)	32 (≈ 73.3 µM)	0.25 (≈ 0.573 µM)	0.5 (≈ 1.15 µM)	0.5 (≈ 1.15 µM)	16 (≈ 36.7 µM)	16 (≈ 36.7 µM)	2 (≈ 4.58 µM)	64 (≈ 147 µM)	4 (≈ 9.17 µM)	4 (≈ 9.17 µM)	0.015 (≈ 0.0344 µM)	< 0.008	< 0.008	< 0.008	MIC (Staphylococcus aureus [21]): < 0.008 µg/mL; MIC (Staphylococcus aureus [22]): 2 µg/mL (≈ 4.58 µM); MIC (Staphylococcus aureus [23]): 2 µg/mL (≈ 4.58 µM); MIC (Staphylococcus aureus [24]): 2 µg/mL (≈ 4.58 µM); MIC [25]: < 0.008 µg/mL; MIC [26]: < 0.008 µg/mL; MIC [27]: < 0.008 µg/mL; MIC [28]: 0.25 µg/mL (≈ 0.573 µM); MIC [29]: 0.5 µg/mL (≈ 1.15 µM); MIC [30]: 1 µg/mL (≈ 2.29 µM); MIC (Streptococcus pneumoniae [31]): 0.125 µg/mL (≈ 0.286 µM); MIC (Streptococcus pneumoniae [32]): 1 µg/mL (≈ 2.29 µM); ED50 (Escherichia coli [33]): 12.1 mg/kg; ED50 [34]: 25.4 mg/kg; ED50 (Staphylococcus aureus [35]): 26 mg/kg; ED50 (Streptococcus pneumoniae [36]): 25.3 mg/kg; ED50 (Klebsiella pneumoniae [37]): 21.1 mg/kg; ED50 (Staphylococcus aureus [38]): 11.4 mg/kg; solubility [39]: 3590 µg/mL (≈ 8230 µM)
NCC1CN(c2nc3c(cc2F)c(=O)c(C(=O)O)cn3[C@@H]2C[C@@H]2F)C/C1=N/OCc1ccccc1 (some centres undefined)	0.5 (≈ 1.03 µM)	< 0.008	0.125 (≈ 0.259 µM)	64 (≈ 132 µM)	16 (≈ 33.1 µM)	16 (≈ 33.1 µM)	128 (≈ 265 µM)	0.03 (≈ 0.0621 µM)	0.125 (≈ 0.259 µM)	0.06 (≈ 0.124 µM)	16 (≈ 33.1 µM)	16 (≈ 33.1 µM)	1 (≈ 2.07 µM)	32 (≈ 66.2 µM)	1 (≈ 2.07 µM)	1 (≈ 2.07 µM)	< 0.008	< 0.008	< 0.008	< 0.008	MIC (Staphylococcus aureus [21]): < 0.008 µg/mL; MIC (Staphylococcus aureus [22]): 1 µg/mL (≈ 2.07 µM); MIC (Staphylococcus aureus [23]): 2 µg/mL (≈ 4.14 µM); MIC (Staphylococcus aureus [24]): 1 µg/mL (≈ 2.07 µM); MIC [25]: < 0.008 µg/mL; MIC [26]: < 0.008 µg/mL; MIC [27]: < 0.008 µg/mL; MIC [28]: 0.125 µg/mL (≈ 0.259 µM); MIC [29]: 0.25 µg/mL (≈ 0.517 µM); MIC [30]: 2 µg/mL (≈ 4.14 µM); MIC (Streptococcus pneumoniae [31]): 0.03 µg/mL (≈ 0.0621 µM); MIC (Streptococcus pneumoniae [32]): 0.25 µg/mL (≈ 0.517 µM); ED50 (Escherichia coli [33]): 18 mg/kg; ED50 (Staphylococcus aureus [38]): 16.9 mg/kg; solubility [39]: 240 µg/mL (≈ 496 µM)

— ChEMBL document CHEMBL3352227, “Synthesis, antimycobacterial and antibacterial evaluation of l-[(1R, 2S)-2-fluorocyclopropyl]fluoroquinolone derivatives containing an oxime functional moiety” (Eur J Med Chem, 2014)
